Reference: ChEMBL document CHEMBL5543125, “Discovery of 2,3-Dihydro[1,4]dioxino[2,3-g]benzofuran Derivatives as Protease Activated Receptor 4 (PAR4) Antagonists with Potent Antiplatelet Aggregation Activity and Low Bleeding Tendency” (J Med Chem, 2024)
Active and inactive are the calls of the source. The calls are words filed in the database; no cut-off is given here.

What was measured:
[1] = target: T1, Proteinase-activated receptor 4 (Homo sapiens) (UniProt Q96RI0); experiment: Antagonist activity at PAR4 in human filtered plasma assessed as inhibition of PAR4-activated peptide AYPGPK-NH2 induced platelet aggregation at 3 nM preincubated for 5 mins followed by aggregation inducer addition and measured after 5 mins by light transmission aggregometry; format: functional, cell-free; conditions: filed as antagonist, time 10.0 min
T1 sequence (whole entry): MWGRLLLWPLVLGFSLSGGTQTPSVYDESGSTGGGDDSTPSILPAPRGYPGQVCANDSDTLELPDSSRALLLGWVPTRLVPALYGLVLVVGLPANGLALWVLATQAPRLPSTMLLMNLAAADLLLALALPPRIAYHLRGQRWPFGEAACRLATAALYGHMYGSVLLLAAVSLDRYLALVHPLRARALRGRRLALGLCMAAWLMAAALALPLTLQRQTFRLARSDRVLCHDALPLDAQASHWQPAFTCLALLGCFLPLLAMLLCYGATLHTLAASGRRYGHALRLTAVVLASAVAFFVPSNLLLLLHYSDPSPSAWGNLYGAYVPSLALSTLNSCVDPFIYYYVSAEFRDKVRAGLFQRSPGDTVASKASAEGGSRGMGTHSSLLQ

[2] = target: T1, Proteinase-activated receptor 4 (Homo sapiens); experiment: (§1) Antagonist activity at PAR4 in human plasma assessed as inhibition of PAR4-activated peptide AYPGPK-NH2 induced platelet aggregation by measuring residual aggregation rate at 20 nM to 1 uM preincubated for 5 mins followed by aggregation inducer addition and measured after 5 mins by light transmission aggregometry relative to control; format: functional, cell-free; conditions: filed as antagonist, dose 20-1000 nM, time 10.0 min
[3] = target: T2, Proteinase-activated receptor 1 (Homo sapiens) (UniProt P25116); experiment: Antagonist activity at PAR1 in human plasma assessed as inhibition of PAR1-activated peptide SFLLRNPNDKY induced platelet aggregation upto 9 uM preincubated for 5 mins followed by aggregation inducer addition and measured after 5 mins by light transmission aggregometry; format: functional, cell-free; conditions: time 10.0 min
T2 sequence (whole entry): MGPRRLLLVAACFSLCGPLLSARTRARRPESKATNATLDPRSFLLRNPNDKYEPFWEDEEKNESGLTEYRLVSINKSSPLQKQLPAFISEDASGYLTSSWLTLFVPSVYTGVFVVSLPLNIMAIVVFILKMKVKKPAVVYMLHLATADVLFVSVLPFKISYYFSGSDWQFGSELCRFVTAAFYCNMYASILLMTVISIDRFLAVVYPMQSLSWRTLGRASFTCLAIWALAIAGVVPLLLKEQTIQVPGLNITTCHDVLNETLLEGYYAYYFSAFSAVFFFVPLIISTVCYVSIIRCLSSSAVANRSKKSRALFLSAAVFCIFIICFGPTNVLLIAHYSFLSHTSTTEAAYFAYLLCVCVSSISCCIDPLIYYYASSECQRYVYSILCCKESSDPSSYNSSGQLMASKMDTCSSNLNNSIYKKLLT

[4] = tested on: Platelet; experiment: Antagonist activity at P2Y1/P2Y12 in human plasma assessed as inhibition of ADP-induced platelet aggregation at 20 nM to 1 uM preincubated for 5 mins followed by aggregation inducer addition and measured after 5 mins by light transmission aggregometry; format: cell-free; conditions: dose 20-1000 nM, time 10.0 min
[5] = Oral bioavailability in Sprague-Dawley rat at 50 mg/kg; format: ADME, organism-based; conditions: in vivo
[6] = target: T3, Thromboxane A2 receptor (Homo sapiens) (UniProt P21731); experiment: Antagonist activity at thromboxane A2 receptor in human plasma assessed as inhibition of U46619-induced platelet aggregation at 20 nM to 1 uM preincubated for 5 mins followed by aggregation inducer addition and measured after 5 mins by light transmission aggregometry; format: functional, cell-free; conditions: dose 20-1000 nM, time 10.0 min
T3 sequence (whole entry): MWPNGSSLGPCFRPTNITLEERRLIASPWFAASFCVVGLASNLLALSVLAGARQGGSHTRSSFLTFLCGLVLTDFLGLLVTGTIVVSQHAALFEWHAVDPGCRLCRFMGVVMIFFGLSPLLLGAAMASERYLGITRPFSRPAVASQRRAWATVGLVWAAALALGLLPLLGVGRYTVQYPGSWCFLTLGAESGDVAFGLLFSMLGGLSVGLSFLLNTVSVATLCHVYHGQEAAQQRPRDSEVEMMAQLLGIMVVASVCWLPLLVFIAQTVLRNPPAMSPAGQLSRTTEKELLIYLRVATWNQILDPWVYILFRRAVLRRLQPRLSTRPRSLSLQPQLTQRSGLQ

[7] = tested on: Platelet; experiment: as §1, with “Antiplatelet aggregation” for “Antagonist”, “activity” for “activity at PAR4”, “thrombin” for “PAR4-activated peptide AYPGPK-NH2”; format: functional; conditions: dose 20-1000 nM, time 10 min, at 20 to 1000 nM
[8] = tested on: Platelet; experiment: Antagonist activity at GPIB/vWF in human plasma assessed as inhibition of ristocetin-induced platelet aggregation at 20 nM to 1 uM preincubated for 5 mins followed by aggregation inducer addition and measured after 5 mins by light transmission aggregometry; format: cell-free; conditions: dose 20-1000 nM, time 10.0 min
[9] = target: T1, Proteinase-activated receptor 4 (Homo sapiens); experiment: Antagonist activity at PAR4 in human filtered plasma assessed as inhibition of PAR4-activated peptide AYPGPK-NH2 induced platelet aggregation at 10 nM preincubated for 5 mins followed by aggregation inducer addition and measured after 5 mins by light transmission aggregometry relative to control; format: functional, cell-free; conditions: filed as antagonist, time 10.0 min
[10] = tested on: Platelet; experiment: Inhibition of platelet aggregation in human platelet rich plasma at 20 uM preincubated for 5 mins followed by aggregation inducer addition and measured after 5 mins by light transmission aggregometry relative to control; format: functional; conditions: 10 min
[11] = target: T4, Platelet glycoprotein VI (Homo sapiens) (UniProt Q9HCN6); experiment: Antagonist activity at GPVI in human plasma assessed as inhibition of collagen-induced platelet aggregation at 20 nM to 1 uM preincubated for 5 mins followed by aggregation inducer addition and measured after 5 mins by light transmission aggregometry; format: cell-free; conditions: dose 20-1000 nM, time 10.0 min
T4 sequence (whole entry): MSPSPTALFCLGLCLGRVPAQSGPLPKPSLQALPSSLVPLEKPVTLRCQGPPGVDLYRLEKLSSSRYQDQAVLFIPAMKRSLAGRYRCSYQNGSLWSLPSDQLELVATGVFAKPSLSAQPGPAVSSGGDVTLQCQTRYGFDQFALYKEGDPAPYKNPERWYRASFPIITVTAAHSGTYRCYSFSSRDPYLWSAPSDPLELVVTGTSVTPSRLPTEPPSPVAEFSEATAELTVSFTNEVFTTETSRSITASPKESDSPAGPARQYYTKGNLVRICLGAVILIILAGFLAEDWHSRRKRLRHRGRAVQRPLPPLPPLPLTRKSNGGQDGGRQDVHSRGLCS

[12] = Metabolic stability in human liver microsomes assessed as half life at 1 uM preincubated for 1 hr followed by NADPH addition and measured upto 60 mins by LC-MS/MS analysis; format: ADME, Microsome; conditions: time < 120 min
[13] = tested on: Platelet; experiment: Inhibition of platelet aggregation in human platelet rich plasma preincubated for 5 mins followed by aggregation inducer addition and measured after 5 mins by light transmission aggregometry; format: functional, cell-based
[14] = target: T2, Proteinase-activated receptor 1 (Homo sapiens); experiment: Antagonist activity at PAR1 in human plasma assessed as inhibition of PAR1-activated peptide SFLLRNPNDKY induced platelet aggregation at 20 nM to 1 uM preincubated for 5 mins followed by aggregation inducer addition and measured after 5 mins by light transmission aggregometry; format: functional, cell-free; conditions: dose 20-1000 nM, time 10.0 min

COc1nn2cc(-c3cc4ccc5c(c4o3)OCCO5)nc2s1
Activity [1]: Active
Activity [2]: < 30%
Activity [3]: inactive
Activity [4]: inactive
bioavailability [5]: 0.94%
Activity [6]: inactive
Activity [7]: <30%
Activity [8]: inactive
inhibition [9]: 100%
inhibition at 20 µM [10]: 90.5%
Activity [11]: inactive
half-life at 1 µM [12]: 12.2 min
IC50 [13]: 3.2 nM
Activity [14]: inactive
